Laboratory results taken from the NIST ThermoML archive (doi:10.1016/j.jct.2012.02.033).
± gives the expanded uncertainty stated by the source.

What was measured:
[1] = 101.33 kPa, Liquid, Vibrating tube method
[2] = xn = mol fraction of the nth substance listed; conditions: 101.3 kPa, Liquid, Vibrating tube method

CCNC=O [N-ethylformamide]
[1]
Conditions | mass density [kg/m3]
293.15 K | 951.59 ± 0.24
298.15 K | 947.48 ± 0.24
303.15 K | 943.29 ± 0.24
308.15 K | 939.04 ± 0.24
313.15 K | 934.78 ± 0.24

CCNC=O [N-ethylformamide] + C1CCOC1
mass density [kg/m3], [2]
Conditions | x1 = 0.1142 | x1 = 0.2142 | x1 = 0.3179 | x1 = 0.4258 | x1 = 0.5219 | x1 = 0.6177 | x1 = 0.7146 | x1 = 0.8111 | x1 = 0.9121
293.15 K | 896.3 ± 0.15 | 903.1 ± 0.16 | 910.05 ± 0.16 | 917.17 ± 0.17 | 923.35 ± 0.18 | 929.34 ± 0.19 | 935.26 ± 0.2 | 940.88 ± 0.21 | 946.8 ± 0.23
298.15 K | 890.99 ± 0.15 | 897.92 ± 0.16 | 905.07 ± 0.16 | 912.38 ± 0.17 | 918.66 ± 0.18 | 924.77 ± 0.19 | 930.78 ± 0.2 | 936.53 ± 0.21 | 942.58 ± 0.23
303.15 K | 885.68 ± 0.16 | 892.77 ± 0.16 | 900.1 ± 0.17 | 907.54 ± 0.17 | 913.98 ± 0.18 | 920.19 ± 0.19 | 926.31 ± 0.2 | 932.18 ± 0.21 | 938.31 ± 0.23
308.15 K | 880.28 ± 0.16 | 887.57 ± 0.16 | 895.02 ± 0.17 | 902.62 ± 0.18 | 909.25 ± 0.18 | 915.53 ± 0.19 | 921.81 ± 0.2 | 927.84 ± 0.21 | 934.01 ± 0.23
313.15 K | 874.84 ± 0.16 | 882.2 ± 0.16 | 889.89 ± 0.17 | 897.66 ± 0.18 | 904.45 ± 0.18 | 910.99 ± 0.19 | 917.2 ± 0.2 | 923.35 ± 0.22 | 929.64 ± 0.23

CCNC=O [N-ethylformamide] + CCC(C)=O
mass density [kg/m3], [2]
Conditions | x1 = 0.1242 | x1 = 0.2302 | x1 = 0.3384 | x1 = 0.4407 | x1 = 0.5398 | x1 = 0.6369 | x1 = 0.7317 | x1 = 0.8186 | x1 = 0.91
293.15 K | 826.16 ± 0.18 | 840.95 ± 0.19 | 856.12 ± 0.19 | 870.55 ± 0.2 | 884.78 ± 0.2 | 898.71 ± 0.21 | 912.21 ± 0.22 | 925 ± 0.23 | 938.61 ± 0.24
298.15 K | 820.91 ± 0.19 | 836.01 ± 0.19 | 851.11 ± 0.19 | 865.71 ± 0.2 | 880.07 ± 0.2 | 894.02 ± 0.21 | 907.71 ± 0.22 | 920.61 ± 0.23 | 934.41 ± 0.24
303.15 K | 815.8 ± 0.19 | 830.97 ± 0.19 | 846.25 ± 0.19 | 860.93 ± 0.2 | 875.4 ± 0.2 | 889.48 ± 0.21 | 903.31 ± 0.22 | 916.28 ± 0.23 | 930.12 ± 0.24
308.15 K | 810.54 ± 0.19 | 825.9 ± 0.19 | 841.32 ± 0.19 | 856.14 ± 0.2 | 870.71 ± 0.21 | 884.87 ± 0.21 | 898.84 ± 0.22 | 911.88 ± 0.23 | 925.83 ± 0.24
313.15 K | 805.22 ± 0.19 | 820.74 ± 0.19 | 836.31 ± 0.2 | 851.26 ± 0.2 | 865.95 ± 0.21 | 880.2 ± 0.21 | 894.3 ± 0.22 | 907.42 ± 0.23 | 921.48 ± 0.24

CCNC=O [N-ethylformamide] + CCOC(C)=O
mass density [kg/m3], [2]
Conditions | x1 = 0.1322 | x1 = 0.2514 | x1 = 0.3559 | x1 = 0.4653 | x1 = 0.564 | x1 = 0.671 | x1 = 0.7544 | x1 = 0.8376 | x1 = 0.9223
293.15 K | 907.89 ± 0.16 | 914.13 ± 0.16 | 919.39 ± 0.17 | 924.91 ± 0.17 | 929.7 ± 0.18 | 935.01 ± 0.2 | 939.27 ± 0.2 | 943.3 ± 0.22 | 947.63 ± 0.23
298.15 K | 901.99 ± 0.16 | 908.51 ± 0.16 | 914.06 ± 0.17 | 919.68 ± 0.18 | 924.66 ± 0.18 | 930.12 ± 0.2 | 934.56 ± 0.21 | 938.85 ± 0.22 | 943.28 ± 0.23
303.15 K | 896.06 ± 0.16 | 902.84 ± 0.16 | 908.62 ± 0.17 | 914.51 ± 0.18 | 919.65 ± 0.19 | 925.33 ± 0.2 | 929.93 ± 0.21 | 934.35 ± 0.22 | 938.94 ± 0.23
308.15 K | 890.09 ± 0.16 | 897.16 ± 0.17 | 903.23 ± 0.17 | 909.29 ± 0.18 | 914.62 ± 0.19 | 920.5 ± 0.2 | 925.29 ± 0.21 | 929.86 ± 0.22 | 934.56 ± 0.23
313.15 K | 884.03 ± 0.16 | 891.14 ± 0.17 | 897.65 ± 0.17 | 903.98 ± 0.18 | 909.53 ± 0.19 | 915.67 ± 0.2 | 920.55 ± 0.21 | 925.31 ± 0.22 | 930.15 ± 0.23

CCC(C)=O [butanone]
[1]
Conditions | mass density [kg/m3]
293.15 K | 808.64 ± 0.16
298.15 K | 803.24 ± 0.17
303.15 K | 797.88 ± 0.17
308.15 K | 792.45 ± 0.17
313.15 K | 786.94 ± 0.17

CCOC(C)=O [ethyl acetate]
[1]
Conditions | mass density [kg/m3]
293.15 K | 900.26 ± 0.15
298.15 K | 894.14 ± 0.15
303.15 K | 887.85 ± 0.15
308.15 K | 881.52 ± 0.15
313.15 K | 875.14 ± 0.16

C1CCOC1 [tetrahydrofuran]
[1]
Conditions | mass density [kg/m3]
293.15 K | 888.73 ± 0.14
298.15 K | 883.24 ± 0.15
303.15 K | 877.6 ± 0.15
308.15 K | 872.02 ± 0.15
313.15 K | 866.23 ± 0.15
